{
  "source": "patent US20200009118A1",
  "about": "“COMPOSITIONS AND METHODS FOR THE TREATMENTOF NEURODEGENERATIVE AND OTHER DISEASES” (Glialogix, Inc., priority 2017, published 2020)",
  "key": {"[1]": {"tested_on": "xCT mRNA in primary rat astrocyte cells", "assay": "qPCR of xCT mRNA in primary astrocytes", "assay_type": "cell-based", "settings": "astrocyte media, control gene gamma-actin", "protocol": "(§1) Primary rat astrocyte cells were purchased from All Cells (Catalog #RCTX-001F, Alameda, Calif.), thawed and resuspended in 13.4 ml of DMEM media (Catalog #12-614F, Lonza, Allendale, N.J.) supplemented with 15% v/v FBS (Catalog #F4135, Sigma-Aldrich, St. Louis, Mo.) and 560 μL aliquoted into wells in a 24-well plate. Cells were incubated at 37° C. with 5% CO2. For each qPCR experiment, 2-3 wells (approximately 42,000-63,000 cells) were transferred to a new 24-well plate with fresh astrocyte media, composed of 50% v/v DMEM, 50% v/v Neurobasal media (Catalog #12348-017), Life Technologies, supplemented with 2 mM glutamine, 300 μM L-cystine. Following 24 hours, cells were then mixed and aliquoted into 24 well plates at approximately 10,000 cells per well in the same media. Compounds to be tested were then added at the indicated concentrations and cells harvested 18 hours later by washing once with PBS (Catalog #P5493, Sigma-Aldrich) and then treated with 300 μl of StemProAccutase cell dissociation reagent (Catalog #A11105-01, Life Technologies) and incubated for 5-10 minutes at 37° C. PBS (300 μl) was added and the cells spun down in a microfuge for 5 minutes at 2,000×g at 4° C. The supernatant was removed and mRNA was isolated from the cells by using the Purelink microscale RNA extraction kit (Catalog #12183016, Life Technologies) according to the manufacturer's instructions. The mRNA resuspended in 12-22 μl of RNase-free water. cDNA was prepared by use of the Superscript VILO kit (Catalog #11755050, Life Technologies) according to the manufacturer's instructions. The cDNA was eluted in a final volume of 20 μl RNase-free water in and 4 μl was used for each qPCR reaction. qPCR reactions and primers were as described in Example 11.\n(§2) To determine if tunicamycin increased levels of xCT mRNA, Tunicamycin (5 ng/ml) was added to the primary astrocyte cell cultures in astrocyte media. xCT gene expression was determined by qPCR after 18 hours of exposure to tunicamycin.\n(§3) The Cycle threshold is abbreviated Ct. The change in Ct equals [Ct (minus test agent)−Ct (plus test agent)]. Changes in Ct of the test genes xCT and Lcn-2 are normalized by subtracting the change in Ct of the control gene, either gamma-actin or Hypoxanthine-guanine phosphoribosyl transferase (HPRT). Ct values are converted to absolute values by the formula: absolute value=2^^(normalized change in Ct). Absolute values are converted to percent change by multiplying the absolute value by 100.\n(§4) Using the methods described in Example 11, various agents known to cause activation of neuroinflammatory cells and/or cause or reflect stress and damage to neurons, axons and/or oligodendrocytes were tested for causing an increase in xCT levels in primary rat astrocytes."}, "[2]": {"tested_on": "Lcn-2 mRNA in primary rat astrocyte cells", "assay": "qPCR of Lcn-2 mRNA in primary astrocytes", "assay_type": "cell-based", "settings": "astrocyte media, control gene gamma-actin", "protocol": "as §1, §2, §3, §4"}},
  "data": [
    {"substance": "A-beta 1-40: A-beta 1-40 peptide, misfolded/aggregated protein", "values": [
      {"measurement": "xCT, Change in Ct normalized to control gene", "setting": "[1]; 2 μg/ml", "result": 0.276},
      {"measurement": "xCT, Fold change normalized", "setting": "[1]; 2 μg/ml", "result": 1.21},
      {"measurement": "xCT, Percent change normalized", "setting": "[1]; 2 μg/ml", "result": 121, "unit": "%"},
      {"measurement": "xCT, Change in Ct normalized to control gene", "setting": "[1]; 20 ug/ml", "result": 0.951},
      {"measurement": "xCT, Fold change normalized", "setting": "[1]; 20 ug/ml", "result": 1.93},
      {"measurement": "xCT, Percent change normalized", "setting": "[1]; 20 ug/ml", "result": 193, "unit": "%"},
      {"measurement": "Lcn-2, Percent change normalized", "setting": "[2]; 2 μg/ml", "result": 130, "unit": "%"},
      {"measurement": "Lcn-2, Percent change normalized", "setting": "[2]; 20 ug/ml", "result": 140, "unit": "%"}
    ]},
    {"substance": "IL-6: inflammatory cytokine", "values": [
      {"measurement": "xCT, Change in Ct normalized to control gene", "setting": "[1]; 20 ng/ml", "result": 0.366},
      {"measurement": "xCT, Fold change normalized", "setting": "[1]; 20 ng/ml", "result": 1.29},
      {"measurement": "xCT, Percent change normalized", "setting": "[1]; 20 ng/ml", "result": 129, "unit": "%"},
      {"measurement": "xCT, Change in Ct normalized to control gene", "setting": "[1]; 100 ng/ml", "result": 0.380},
      {"measurement": "xCT, Fold change normalized", "setting": "[1]; 100 ng/ml", "result": 1.30},
      {"measurement": "xCT, Percent change normalized", "setting": "[1]; 100 ng/ml", "result": 130, "unit": "%"},
      {"measurement": "Lcn-2, Percent change normalized", "setting": "[2]; 20 ng/ml", "result": 146, "unit": "%"},
      {"measurement": "Lcn-2, Percent change normalized", "setting": "[2]; 100 ng/ml", "result": 130, "unit": "%"}
    ]},
    {"substance": "Pam2CSK4", "values": [
      {"measurement": "xCT, Change in Ct normalized to control gene", "setting": "[1]; 200 ng/ml", "result": 0.65},
      {"measurement": "xCT, Fold change normalized", "setting": "[1]; 200 ng/ml", "result": 1.57},
      {"measurement": "xCT, Percent change normalized", "setting": "[1]; 200 ng/ml", "result": 157, "unit": "%"},
      {"measurement": "Lcn-2, Percent change normalized", "setting": "[2]; 200 ng/ml", "result": "1,602%"}
    ]}
  ]
}
